This is an account of results in patent publication US7662824B2, “Acylhydrazones as kinase modulators” (Janssen Pharmaceutica NV, priority 2005, dated 2010).

The nature of one data set: Aqueous solubility assay. As to conditions: water with 0.4% DMSO, kinetic from dmso stock.
Data set [1] deals with T1, c-Met (Homo sapiens, UniProt P08581). Kind of data set: Delfia autophosphorylation kinase assay on the c-Met. Further details: The purified His6 tagged cytoplasmic domain of c-Met was diluted to a concentration of 500 ng/ml; made in house; host or cells: Sf9 insect cells with recombinant baculovirus; Large-scale expression and purification were done by the contract lab Pan Vera. As to conditions: His6 tagged cytoplasmic domain of c-Met, 1 μM ATP; read-out: c-Met Delfia Autophos IC50. The data set is classed as biochemical. The protocol: This example describes the cloning, expression, and purification of the cytoplasmic domain of c-Met which has the c-Met receptor tyrosine kinase activity.
A DELFIA time resolved fluorescence assay was developed for screening of compounds that decreases the autophosphorylation thus the kinase activity of c-Met.
The DELFIA assay is non-radioactive. The autophophorylation of the c-Met is measured by an anti-phosphotyrosine antibody coupled to an Europium tag.
A major advantage of this format is that it allowed for the development of an autophosphorylation assay using Ni-chelate plates which bind the hexa-his tag on the recombinant Met kinase. Autophosphorylation assay allows to use a known substrate, Met kinase itself, for the phosphorylation. The DELFIA Met autophosphorylation assay is very sensitive with a signal to noise ratio in excess of 50:1.
The assay procedure for screening is as follows. The purified His6 tagged cytoplasmic domain of c-Met was diluted to a concentration of 500 ng/ml in enzyme dilution buffer (50 mM Tris-HCl, pH8.0, 0.1% BSA) and dispensed to assay plates at a volume of 50 μl per well. Black opaque HisGrab Nickel coated 96 well plates (Pierce, Rockford, Ill.) were selected to run the assay. Next, 2.5 μl of compound in 40% DMSO was added to test wells, 2.5 μl of 40% DMSO only was added to the negative control wells. The autophosphorylation reaction was initiated upon the addition of 50 μl of reaction buffer, 50 mM Tris-HCl, pH 8.0, 10 mM MgCl2, 0.1 mM Na3VO4, 1 mM DTT, 1 μM ATP. Plates were incubated at room temperature for 1 hour followed by 2 washes with 200 μl/well of PBS. Europium conjugated anti-phosphotyrosine antibody, Eu-PY20 from Perkin Elmer was diluted to 50 ng/ml in Delfia AB buffer (Perkin Elmer, Boston, Mass.), added to the 96 well assay plates at a volume of […], and incubated at room temperature for 2 hours. Assay plates were then washed 4 times each with 200 μl/well of Delfia wash buffer (Perkin Elmer). After the final wash 150 μl of Delfia Enhancement solution (Perkin Elmer) was added to each well of the assay plate and incubated at room temperature for 1 hour. Plates were read on an LJL Analyst instrument (Molecular Devices; Sunnyvale, Calif.) with filter settings of 360 excitation, 620 emission, and 410 dichroic. IC50 values were calculated using Graphpad Prism software (Graphpad Software; San Diego, Calif.).
Target sequence in this assay (P08581 956-1390 limits assumed): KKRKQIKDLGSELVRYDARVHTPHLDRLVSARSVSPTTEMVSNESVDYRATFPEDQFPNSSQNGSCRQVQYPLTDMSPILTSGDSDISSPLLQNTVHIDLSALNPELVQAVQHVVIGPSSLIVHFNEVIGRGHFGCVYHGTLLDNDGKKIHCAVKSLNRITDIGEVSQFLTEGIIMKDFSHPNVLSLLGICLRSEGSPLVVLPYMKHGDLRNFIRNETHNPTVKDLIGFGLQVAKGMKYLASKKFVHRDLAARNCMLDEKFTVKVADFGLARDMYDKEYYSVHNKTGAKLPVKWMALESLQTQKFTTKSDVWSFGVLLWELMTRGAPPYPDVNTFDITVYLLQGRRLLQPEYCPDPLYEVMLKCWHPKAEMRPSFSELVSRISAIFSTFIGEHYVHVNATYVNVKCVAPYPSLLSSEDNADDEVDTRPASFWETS

Data set [2] addresses T1, c-Met. Kind of data set: Fluorescence polarization assay on the kinase activity of c-Met. Type of data set: biochemical. Further details: The c-Met kinase domain consists amino acid 1046-1390 of the c-Met protein; made in house; host or cells: Sf9 insect cells with baculovirus. As to conditions: 6H-TEV-cMet, poly Gly4Tyr substrate, 10 μM ATP; read-out: c-Met FP Enz IC50. The text has this: A fluorescence polarization assay (FP) was developed for screening of compounds that decreases the kinase activity of c-Met.
A protein (6H-TEV-cMet) comprising c-Met kinase domain was cloned, recombinantly expressed and purified following a procedure similar to that as described in Example A. The protein comprises a His tag consisting of six histidines at its N-terminal, a TEV protease cleavage site, and the c-Met kinase domain. The c-Met kinase domain consists amino acid 1046-1390 of the c-Met protein as listed in GenBank protein accession number P08581.
For the c-Met kinase assay, the 6H-TEV-cMet was used as the enzyme, and a poly Gly4Tyr peptide (Sigma, P-0275) was used as the substrate. The kinase reaction was performed in a volume of 10 μl in HE microplates (LJL Biosystems). Assay conditions were as follows: 100 mM HEPES pH 7.5, 0.01% Tween-20, 1 mM DTT, 5 mM MgCl2, 10 μM ATP, 10 μg/ml poly Gly4Tyr. The kinase reaction was initiated upon addition of 10 nM 6H-TEV-cMet. After a 12 minute incubation at room temperature the reaction was terminated with […] 50 mM EDTA.
Phosphorylation of the peptide substrate was detected with PanVera Tyrosine Kinase Assay Kit, Green reagents (P2837). Five minutes after the addition of EDTA, 10 μl of antibody/tracer mix (Pan Vera reagents, 1:1:3 dilution of antibody: Tracer: FP dilution buffer, Cat. # P2837) was added to each well. Plates were allowed to incubate for 30 minutes at room temperature and fluorescence polarization was measured with an LJL Analyst instrument (Molecular Devices; Sunnyvale, Calif.) with excitation=485 nm filter and emission=530 nm filter. IC50 values were calculated from triplicate sets of data using Graphpad Prism software (Graphpad Software; San Diego, Calif.).
Target sequence in this assay (P08581 1046-1390): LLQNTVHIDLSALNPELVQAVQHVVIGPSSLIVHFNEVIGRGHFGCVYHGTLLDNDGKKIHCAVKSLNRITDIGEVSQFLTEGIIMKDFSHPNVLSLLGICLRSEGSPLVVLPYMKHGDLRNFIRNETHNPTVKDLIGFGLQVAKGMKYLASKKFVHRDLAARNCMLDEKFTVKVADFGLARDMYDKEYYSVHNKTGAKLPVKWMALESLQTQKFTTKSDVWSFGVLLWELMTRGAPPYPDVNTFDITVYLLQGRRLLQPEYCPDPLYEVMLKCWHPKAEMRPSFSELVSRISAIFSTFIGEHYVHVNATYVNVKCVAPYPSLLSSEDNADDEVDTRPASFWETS
For orientation: In fluorescence polarisation assays a small probe gives low polarisation when free and higher when bound to something large.

≈ marks a conversion by molar mass, not a printed value.

Protocol for Aqueous solubility assay: Water, PBS and aqueous HCl at pH2 having a final DMSO content of 0.4%, with the final DMSO concentration reaching 40 μM. Samples were placed in the incubator and shaken for 15 minutes.

As to `O=C(Cc1ccc2c(c1)CCO2)N/N=C1\C(=O)Nc2cc(C(=O)NCCN3CCOCC3)ccc21` [Example 3, 3-[(2-2,3-Dihydro-benzofuran-5-yl-acetyl)-hydrazono]-2-oxo-2,3-dihydro-1H-indole-6-carboxylic acid(2-morpholin-4-yl-ethyl)-amide], the solubility at 15 min in the data set “Aqueous solubility assay” amounted to 38.1 µM (≈ 18.2 µg/mL). Further, the half-inhibitory concentration (IC50) at c-Met [1] and at c-Met [2] was 24 nM in each case.

On to `CN1CCN(CCCNC(=O)c2cc(Br)c3c(c2)NC(=O)/C3=N\NC(=O)Cc2ccc3c(c2)CCO3)CC1` [Example 5, 4-Bromo-3-[(2-2,3-dihydro-benzofuran-5-yl-acetyl)-hydrazono]-2-oxo-2,3-dihydro-1H-indole-6-carboxylic acid [3-(4-methyl-piperazin-1-yl)-propyl]-amide], for which the concentration in solution in “Aqueous solubility assay” (solubility at 15 min) came to 38.8 µM (≈ 22.6 µg/mL). The IC50 was determined as 1 nM at c-Met [1] and 13 nM on c-Met [2].

As a reminder, the solubility is the concentration that dissolves in the medium under given conditions. Read a low solubility as a poorly soluble substance. The IC50 is the concentration at which inhibition is half-maximal.
